Tests used:
[1] = Pharmacokinetic study in the rat; conditions: in vivo
Experimental: Assay 6: Pharmacokinetic Study in the Rat
Aqueous solution formulations of test compounds were prepared in 0.1% lactic acid at a pH of between about 5 and about 6. Male Sprague-Dawley rats (CD strain, Charles River Laboratories, Wilmington, Mass.) were dosed with test compounds via intravenous administration (IV) at a dose of 2.5 mg/kg or by oral gavage (PO) at a dose of 5 mg/kg. The dosing volume was 1 mL/kg for IV and 2 mL/kg for PO administration. Serial blood samples were collected from animals pre-dose, and at 2 (IV only), 5, 15, and 30 min, and at 1, 2, 4, 8, and 24 hours post-dose. Concentrations of test compounds in blood plasma were determined by liquid chromatography-mass spectrometry analysis (LC-MS/MS) (MDS SCIEX, API 4000, Applied Biosystems, Foster City, Calif.) with a lower limit of quantitation of 1 ng/mL.
Standard pharmacokinetic parameters were assessed by non-compartmental analysis (Model 201 for IV and Model 200 for PO) using WinNonlin (Version 4.0.1, Pharsight, Mountain View, Calif.). The maximum in the curve of test compound concentration in blood plasma vs. time is denoted Cmax. The area under the concentration vs. time curve from the time of dosing to the last measurable concentration (AUC(0-t)) was calculated by the linear trapezoidal rule. Oral bioavailability (F(%)), i.e. the dose-normalized ratio of AUC(0-t) for PO administration to AUC(0-t) for IV administration, was calculated as: F(%)=AUCPO/AUCIV×DoseIV/DosePO×100%

human 5-HT4(c) receptor = human 5-HT4(c) receptor (Homo sapiens, UniProt Q13639); assay: Radioligand binding assay on 5-HT4(c) human receptors; design: expressed in transfected cells
Chain of human 5-HT4(c) receptor (Q13639 1-380 isoform Q13639-4): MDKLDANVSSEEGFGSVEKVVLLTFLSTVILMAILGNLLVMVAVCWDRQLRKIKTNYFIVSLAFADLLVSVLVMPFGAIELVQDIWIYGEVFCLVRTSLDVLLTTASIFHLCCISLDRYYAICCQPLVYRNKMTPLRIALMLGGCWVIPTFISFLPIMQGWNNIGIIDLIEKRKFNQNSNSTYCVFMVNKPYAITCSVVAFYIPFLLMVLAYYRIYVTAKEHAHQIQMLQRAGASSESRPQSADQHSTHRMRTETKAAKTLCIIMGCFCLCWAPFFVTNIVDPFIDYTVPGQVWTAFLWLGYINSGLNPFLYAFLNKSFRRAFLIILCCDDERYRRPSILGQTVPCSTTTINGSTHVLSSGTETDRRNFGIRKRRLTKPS
Experimental: Assay 1: Radioligand Binding Assay on 5-HT4(c) Human Receptors a. Membrane Preparation 5-HT4(c)
Cells were grown under continuous selection pressure by the addition of 800 μg/mL geneticin (GIBCO-Invitrogen Corp.: Cat #10131) to the medium.
Cells were grown to roughly 60-80% confluency (<35 subculture passages). At 20-22 hours prior to harvesting, cells were washed twice and fed with serum-free DMEM. […] The cell monolayer was lifted by gentle mechanical agitation and trituration with a 25 mL pipette.
For the membrane preparation, cell pellets were resuspended in ice-cold 50 mM 4-(2-hydroxyethyl)-1-piperazineethanesulphonic acid (HEPES), pH 7.4 (membrane preparation buffer) (40 mL/total cell yield from 30-40 T225 flasks) and homogenized using a polytron disrupter (setting 19, 2×10 s) on ice. The resultant homogenates were centrifuged at 1200 g for 5 min at 4° C. […] Protein concentration of the membrane suspension was determined by the method of Bradford (Bradford, 1976). […]
Non-specific binding was determined in the presence of 1 μM unlabeled GR113808.
Binding data were analyzed by nonlinear regression analysis with the GraphPad Prism Software package (GraphPad Software, Inc., San Diego, Calif.) using the 3-parameter model for one-site competition. […] Results are expressed as the negative decadic logarithm of the Ki values, pKi.

[2] = male Sprague-Dawley rats, PO 5 mg/kg, blood plasma

Work on `CC(=O)N1CCN(CCN2C3CCC2CC(NC(=O)c2nn(C(C)C)c4ccccc24)C3)CC1` [compound of formula I, 1-isopropyl-1H-indazole-3-carboxylic acid {(1S,3R,5R)-8-[2-(4-acetylpiperazin-1-yl)ethyl]-8-azabicyclo[3.2.1]oct-3-yl}amide] yielded an AUC(0-t) [1, 2] of 730 ng·h/mL, a Cmax [1, 2] of 250 ng/mL and a bioavailability ([1]; male, Sprague-Dawley, PO 5 mg/kg vs IV 2.5 mg/kg, read-out: oral bioavailability (F(%))) of about 100%. It also gave a Ki (human 5-HT4(c) receptor) of under 100 nM.

— patent publication US20060183901A1, “Crystalline form of an indazole-carboxamide compound” (THERAVANCE, INC., priority 2005, published 2006)
